{"source": "ChEMBL document CHEMBL1129806", "about": "“Diastereoselective synthesis of trans-2-(1-triphenylmethyl-1H-imidazol-4-yl)cyclopropanecarboxylic acids: key intermediates for the preparation of potent and chiral histamine H3 receptor agents” (Bioorg Med Chem Lett, 1997)", "target": "Histamine H3 receptor (Rattus norvegicus, UniProt Q9QYN8)", "sequence (Q9QYN8 whole entry)": "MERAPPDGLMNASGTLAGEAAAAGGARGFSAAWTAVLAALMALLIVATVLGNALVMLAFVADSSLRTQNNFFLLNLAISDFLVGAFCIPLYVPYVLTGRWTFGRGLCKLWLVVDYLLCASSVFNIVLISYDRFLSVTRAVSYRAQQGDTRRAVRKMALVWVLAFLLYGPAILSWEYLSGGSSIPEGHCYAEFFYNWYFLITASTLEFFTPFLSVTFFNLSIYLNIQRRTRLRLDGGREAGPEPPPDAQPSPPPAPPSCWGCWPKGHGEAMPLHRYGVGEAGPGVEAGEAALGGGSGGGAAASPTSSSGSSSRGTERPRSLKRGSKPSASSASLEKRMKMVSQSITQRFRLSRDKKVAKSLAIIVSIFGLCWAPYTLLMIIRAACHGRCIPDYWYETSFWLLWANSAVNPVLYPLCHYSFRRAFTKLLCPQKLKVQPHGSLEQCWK", "assay": "Histamine H3 receptor affinity of compound was determined in rat cortical membranes using the H3 selective agonist ligand, [3H]N-alpha-methylhistamine", "type": "cell membranes, Membrane", "data": [{"smiles": "Ic1ccc(COCCCc2c[nH]cn2)cc1", "note": "[IODOPROXYFAN]", "values": [{"measurement": "Ki", "value": 0.3, "unit": "nM"}]}]}
